Assay results reported in article PMC6018633, “Structural bases of TRP channel TRPV6 allosteric modulation by 2-APB” (Nature Communications, 2018).

What was measured:
[1] = molecular target: TRPV6* (rat TRPV6 residues 1-668 with I62Y, L92N and M96Q) (rat) (UniProt Q9R186); assay: crystal structure; TRPV6* constructs purified in DDM, without or with 1 mM 2-APB or 2-APB-Br; hanging drop, 20 °C, 20-24% PEG 350 MME, 50 mM NaCl, 50 mM Tris-HCl pH 8.0-8.5
rat TRPV2 (rTRPV2-Y514A) = conditions: leftward shift of 2-APB concentration dependence; HEK 293 cells, Fura-2
Description: (§1) Fig. 5 Probing of the 2-APB binding site in different TRPV channels. a–c Dose–response curves for 2-APB activation of wild-type (black) and mutant (red) rat TRPV1 (a), rat TRPV2 (b), and mouse TRPV3 (c) channels with alanine substitution of the conserved tyrosine in the presumed 2-APB binding pocket. Each data point represents an average of n = 3–7 measurements with error bars representing SEMs. d, e Close-up view of superposition of the 2-APB binding pocket in the TRPV6*2-APB crystal structure (cyan) and the corresponding regions of rat TRPV1 (d) PDB ID: 5IRX, orange and rabbit TRPV2 (e) PDB ID: 5AN8, green. Phosphatidylcholine (PC), cholesterol and 2-APB molecules as well as the side chain of the conserved tyrosine are shown as sticks
(§2) For crystallization experiments, we used the previously developed construct TRPV6*[39], which includes wild-type rat TRPV6 (rTRPV6) residues 1–668 and three point mutations (I62Y, L92N, and M96Q), and the TRPV6*-Y466A construct, which contains an additional point mutation, Y466A. […]
(§3) The intracellular Ca^2+ measurements from HEK 293 cells expressing different TRP channel constructs (see above) were performed similarly to those described previously[39],[49]. […] The cells were subsequently pelleted and washed twice, and then resuspended in modified HBS for fluorescence measurements. Intracellular Ca^2+ was measured by taking the ratio of fluorescence (510 nm) emitted from Fura 2-AM after excitation at either a wavelength of 340 nm (excites Ca^2+ bound Fura 2-AM) or 380 nm (excites Ca^2+ free Fura 2-AM). The excitation wavelength was switched at 1-s intervals. ΔF340/F380 was measured as the difference between baseline F340/F380 ratio recorded before the addition of Ca^2+ (for TRPV6 experiments) or 2-APB (for TRPV1-3) and the maximum F340/F380 after addition of either Ca^2+ or 2-APB. […] All Fura2-AM-based fluorescence measurements were conducted using a QuantaMaster^TM 40 (Photon Technology International) spectrofluorometer at room temperature in a quartz cuvette under constant stirring.

rat TRPV1 (rTRPV1-Y554A) = conditions: leftward shift of 2-APB concentration dependence; HEK 293 cells, Fura-2
Description: as §1, §2, §3

[2] = system: mouse TRPV3 (mTRPV3-Y564A); conditions: leftward shift of 2-APB concentration dependence; HEK 293 cells, Fura-2
Description: as §1, §2, §3

TRPV5 = conditions: cited from earlier work
hTRPV6-Y467A = hTRPV6-Y467A (Homo sapiens, UniProt Q9H1D0, Y507A); assay: cell-based
Procedure: (§4) Arrows indicate the times when 2-APB and Ca^2+ were added. […] The changes in the fluorescence intensity ratio at 340 and 380 nm (F340/F380) evoked by addition of 2 mM Ca^2+ after preincubation with various concentrations of 2-APB were normalized to the maximal change in F340/F380 after addition of 2 mM Ca^2+ in the absence of 2-APB. […] Error bars represent SEMs
(§5) For crystallization experiments, we used the previously developed construct TRPV6*[39], which includes wild-type rat TRPV6 (rTRPV6) residues 1–668 and three point mutations (I62Y, L92N, and M96Q), and the TRPV6*-Y466A construct, which contains an additional point mutation, Y466A. For calcium uptake measurement experiments, we used TRPV6*, rTRPV6, and rTRPV6 with individual alanine substitutions (rTRPV6-E402A, rTRPV6-H425A, rTRPV6-Y466A, rTRPV6-R469A, and rTRPV6-M602A), wild-type human TRPV6 (hTRPV6), hTRPV6 with a single tyrosine-to-alanine substitution (hTRPV6-Y467A), wild-type rat TRPV1 (rTRPV1), rat TRPV2 (rTRPV2) and mouse TRPV3 (mTRPV3), and their mutant versions with single tyrosine-to-alanine substitutions (rTRPV1-Y554A, rTRPV2-Y514A, and mTRPV3-Y564A, respectively). For cryo-EM experiments, we used hTRPV6 and hTRPV6-Y467A constructs.
(§6) The intracellular Ca^2+ measurements from HEK 293 cells expressing different TRP channel constructs (see above) were performed similarly to those described previously[39],[49]. Briefly, to measure 2-APB-dependent inhibition of TRPV6 activity, cells expressing TRPV6 constructs were suspended in Ca^2+-free buffer and transferred to a quartz cuvette. After an initial 100-s equilibration period, 2-APB was added to the cuvette and incubated for another 100 s, before 2 mM CaCl2 was added. For the TRPV6-E402A mutant, 5 mM instead of 2 mM CaCl2 was added. For intracellular Ca^2+ measurements from HEK 293 cells expressing TRPV1, TRPV2, or TRPV3, the experiments were carried out with prewarmed modified HBS (118 mM NaCl, 4.8 mM KCl, 1 mM MgCl2, 2.5 mM CaCl2, 5 mM D-glucose, 10 mM HEPES pH 7.4). Briefly, HEK 293 cells expressing TRPV1/2/3 channels were centrifuged at 600×g, resuspended in modified HBS containing 5 μg/mL of Fura 2-AM (Life Technologies), and incubated at 37 °C for 45 min. Next, the cells were centrifuged for 5 min at 600×g, resuspended in prewarmed, modified HBS, and incubated again at 37 °C for 20–30 min in the dark. The cells were subsequently pelleted and washed twice, and then resuspended in modified HBS for fluorescence measurements. Intracellular Ca^2+ was measured by taking the ratio of fluorescence (510 nm) emitted from Fura 2-AM after excitation at either a wavelength of 340 nm (excites Ca^2+ bound Fura 2-AM) or 380 nm (excites Ca^2+ free Fura 2-AM). The excitation wavelength was switched at 1-s intervals. ΔF340/F380 was measured as the difference between baseline F340/F380 ratio recorded before the addition of Ca^2+ (for TRPV6 experiments) or 2-APB (for TRPV1-3) and the maximum F340/F380 after addition of either Ca^2+ or 2-APB. Data were normalized to ΔF340/F380 in the absence of 2-APB (for TRPV6 constructs) or the ΔF340/F380 value at saturating concentrations of 2-APB (for TRPV1/2/3).

wild-type rTRPV6 = wild-type rTRPV6 (Rattus norvegicus, UniProt Q9R186); assay: cell-based
Chain of wild-type rTRPV6 (Q9R186 41-767 limits assumed): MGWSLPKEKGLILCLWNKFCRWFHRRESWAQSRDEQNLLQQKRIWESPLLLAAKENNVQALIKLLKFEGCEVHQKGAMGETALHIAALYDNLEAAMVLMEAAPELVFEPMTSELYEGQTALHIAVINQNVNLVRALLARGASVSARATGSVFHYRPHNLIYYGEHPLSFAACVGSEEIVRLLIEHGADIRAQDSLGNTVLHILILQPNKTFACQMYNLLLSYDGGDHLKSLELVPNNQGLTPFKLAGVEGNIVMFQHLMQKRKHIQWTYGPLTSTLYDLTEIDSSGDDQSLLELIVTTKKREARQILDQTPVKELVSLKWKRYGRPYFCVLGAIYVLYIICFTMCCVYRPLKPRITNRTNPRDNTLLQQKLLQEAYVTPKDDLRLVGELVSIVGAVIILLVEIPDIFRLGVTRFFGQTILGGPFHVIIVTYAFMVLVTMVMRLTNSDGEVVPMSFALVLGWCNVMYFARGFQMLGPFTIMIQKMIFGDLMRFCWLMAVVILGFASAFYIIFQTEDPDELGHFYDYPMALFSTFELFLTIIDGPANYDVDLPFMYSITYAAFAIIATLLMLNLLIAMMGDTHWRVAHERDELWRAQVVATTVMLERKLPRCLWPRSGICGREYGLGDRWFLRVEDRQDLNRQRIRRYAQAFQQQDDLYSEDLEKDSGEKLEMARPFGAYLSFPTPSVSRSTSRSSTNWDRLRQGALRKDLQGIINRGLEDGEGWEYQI
Procedure: as §4, §5, §6

wild-type hTRPV6 = wild-type hTRPV6 (Homo sapiens, UniProt Q9H1D0); assay: cell-based
Chain of wild-type hTRPV6 (Q9H1D0 41-765 limits assumed): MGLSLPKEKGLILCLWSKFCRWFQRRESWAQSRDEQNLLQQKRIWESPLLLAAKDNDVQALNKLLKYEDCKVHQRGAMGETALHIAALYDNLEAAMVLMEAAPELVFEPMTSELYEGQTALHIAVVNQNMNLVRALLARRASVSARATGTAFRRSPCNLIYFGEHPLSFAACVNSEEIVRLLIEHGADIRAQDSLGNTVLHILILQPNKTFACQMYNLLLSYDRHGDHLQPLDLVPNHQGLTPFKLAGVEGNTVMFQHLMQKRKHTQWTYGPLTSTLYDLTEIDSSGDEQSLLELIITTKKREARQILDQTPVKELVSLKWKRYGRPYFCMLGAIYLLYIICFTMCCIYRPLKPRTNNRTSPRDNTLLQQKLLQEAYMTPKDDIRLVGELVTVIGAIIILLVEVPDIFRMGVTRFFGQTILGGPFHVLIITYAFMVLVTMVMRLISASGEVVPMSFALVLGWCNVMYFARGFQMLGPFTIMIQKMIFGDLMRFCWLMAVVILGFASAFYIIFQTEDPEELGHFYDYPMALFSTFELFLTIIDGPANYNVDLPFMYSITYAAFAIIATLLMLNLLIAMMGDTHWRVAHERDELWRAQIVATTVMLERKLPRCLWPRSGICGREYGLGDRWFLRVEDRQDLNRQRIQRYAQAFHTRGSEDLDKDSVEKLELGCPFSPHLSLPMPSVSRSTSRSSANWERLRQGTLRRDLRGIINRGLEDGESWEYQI
Procedure: as §4, §5, §6

[3] = molecular target: TRPV6* (rat TRPV6 residues 1-668, I62Y, L92N, M96Q) (Rattus norvegicus, UniProt Q9R186, I102Y/L132N/M136Q); assay: cell-based
Chain of TRPV6* (rat TRPV6 residues 1-668, I62Y, L92N, M96Q) (Q9R186 1-668 I102Y/L132N/M136Q): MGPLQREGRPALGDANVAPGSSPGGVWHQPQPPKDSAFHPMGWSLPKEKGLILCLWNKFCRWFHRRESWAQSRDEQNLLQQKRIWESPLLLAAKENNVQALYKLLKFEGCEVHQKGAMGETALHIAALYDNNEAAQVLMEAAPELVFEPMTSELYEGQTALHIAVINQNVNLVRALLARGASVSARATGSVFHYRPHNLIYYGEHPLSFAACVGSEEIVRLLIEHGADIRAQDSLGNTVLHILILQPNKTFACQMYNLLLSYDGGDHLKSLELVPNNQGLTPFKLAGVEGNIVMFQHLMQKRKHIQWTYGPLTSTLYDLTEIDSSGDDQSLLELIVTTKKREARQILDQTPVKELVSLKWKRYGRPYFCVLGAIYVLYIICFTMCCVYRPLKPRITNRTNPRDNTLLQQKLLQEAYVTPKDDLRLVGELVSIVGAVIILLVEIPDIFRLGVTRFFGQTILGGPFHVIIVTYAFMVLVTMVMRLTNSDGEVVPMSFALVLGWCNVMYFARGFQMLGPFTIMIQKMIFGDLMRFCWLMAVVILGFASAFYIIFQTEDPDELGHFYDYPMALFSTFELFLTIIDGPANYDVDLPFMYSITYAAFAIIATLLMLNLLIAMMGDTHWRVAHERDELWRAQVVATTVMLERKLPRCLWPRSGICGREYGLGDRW
Procedure: as §4, §5, §6

TRPV4 = conditions: cited from earlier work
rTRPV6-H425A = rTRPV6-H425A (Rattus norvegicus, UniProt Q9R186, H465A); assay: cell-based
Chain of rTRPV6-H425A (Q9R186 41-767 H465A limits assumed): as the sequence (Q9R186 41-767 limits assumed) above, with H425A counted along it
Description: (§7) To further characterize the 2-APB binding site and to examine the contribution of individual residues to 2-APB inhibition, we introduced alanine substitutions at residues in the 2-APB binding pocket (E402, H425, Y466, R469, and M602) and tested 2-APB inhibition.
as §5
as §6, with “TRPV1/2/3). All Fura2-AM-based fluorescence measurements were conducted using a QuantaMaster^TM 40 (Photon Technology International) spectrofluorometer at room temperature in a quartz cuvette under constant stirring.” for “TRPV1/2/3).”

rTRPV6-Y466A = rTRPV6-Y466A (Rattus norvegicus, UniProt Q9R186, Y506A); assay: cell-based
Chain of rTRPV6-Y466A (Q9R186 41-767 Y506A limits assumed): as the sequence (Q9R186 41-767 limits assumed) above, with Y466A counted along it
Description: as §7, §5
as §6, with “TRPV1/2/3). All Fura2-AM-based fluorescence measurements were conducted using a QuantaMaster^TM 40 (Photon Technology International) spectrofluorometer at room temperature in a quartz cuvette under constant stirring.” for “TRPV1/2/3).”

rTRPV6-M602A = rTRPV6-M602A (Rattus norvegicus, UniProt Q9R186, M642A); assay: cell-based
Chain of rTRPV6-M602A (Q9R186 41-767 M642A limits assumed): as the sequence (Q9R186 41-767 limits assumed) above, with M602A counted along it
Description: as §7, §5
as §6, with “TRPV1/2/3). All Fura2-AM-based fluorescence measurements were conducted using a QuantaMaster^TM 40 (Photon Technology International) spectrofluorometer at room temperature in a quartz cuvette under constant stirring.” for “TRPV1/2/3).”

rTRPV6-R469A = rTRPV6-R469A (Rattus norvegicus, UniProt Q9R186, R509A); assay: cell-based
Chain of rTRPV6-R469A (Q9R186 41-767 R509A limits assumed): as the sequence (Q9R186 41-767 limits assumed) above, with R469A counted along it
Description: as §7, §5
as §6, with “TRPV1/2/3). All Fura2-AM-based fluorescence measurements were conducted using a QuantaMaster^TM 40 (Photon Technology International) spectrofluorometer at room temperature in a quartz cuvette under constant stirring.” for “TRPV1/2/3).”

rTRPV6-E402A = rTRPV6-E402A (Rattus norvegicus, UniProt Q9R186, E442A); assay: cell-based
Chain of rTRPV6-E402A (Q9R186 41-767 E442A limits assumed): as the sequence (Q9R186 41-767 limits assumed) above, with E402A counted along it
Description: as §7, §5
as §6, with “TRPV1/2/3). All Fura2-AM-based fluorescence measurements were conducted using a QuantaMaster^TM 40 (Photon Technology International) spectrofluorometer at room temperature in a quartz cuvette under constant stirring.” for “TRPV1/2/3).”

[4] = molecular target: the molecule itself; assay: cryo-EM structure; hTRPV6-Y467A in amphipols, 0.35 mg/ml, without or with 1 mM 2-APB; C4 symmetry imposed
[5] = HEK 293 cells, Fura-2, logistic fit
[6] = HEK 293 cells, Fura-2, logistic fit, mean ± SEM

## TRPV6* (rat TRPV6 residues 1-668 with I62Y, L92N and M96Q) (from UniProt Q9R186 1-668) (domain or fragment)
[1]
  stoichiometry N: 4

## NCCOB(c1ccccc1)c1ccccc1 [2-APB, 2-aminoethoxydiphenyl borate]
Rat TRPV2 (rTRPV2-Y514A)
  increase in 2-APB agonist potency, TRPV2 tyrosine-to-alanine mutant vs wild-type: 40 fold
Rat TRPV1 (rTRPV1-Y554A)
  increase in 2-APB agonist potency, TRPV1 tyrosine-to-alanine mutant vs wild-type: 3 fold
[2]
  increase in 2-APB agonist potency, TRPV3 tyrosine-to-alanine mutant vs wild-type: 20 fold
TRPV5
  2-APB modulation of TRPV5: lack of measurable 2-APB modulation
hTRPV6-Y467A
  IC50: 60 ± 13 µM
hTRPV6-Y467A; [5]
  maximal inhibition of Ca2+ uptake, hTRPV6-Y467A: 92.4 ± 8.1%
hTRPV6-Y467A; ratio of IC50 values
  increased potency of 2-APB inhibition, hTRPV6-Y467A compared to hTRPV6: 4.5 fold
wild-type rTRPV6
  IC50: 184 ± 8 µM
wild-type rTRPV6; [6]
  maximal inhibition of Ca2+ uptake, wild-type rTRPV6: 93.6 ± 1.1%
wild-type hTRPV6
  IC50: 274 ± 27 µM
wild-type hTRPV6; [5]
  maximal inhibition of Ca2+ uptake, wild-type hTRPV6: 72.6 ± 2.7%
[3]
  IC50: 156 ± 20 µM
[3]; [6]
  maximal inhibition of Ca2+ uptake, TRPV6*: 83.5 ± 2.9%
TRPV4
  2-APB modulation of TRPV4: lack of measurable 2-APB modulation
rTRPV6-H425A
  IC50: 165 ± 32 µM
rTRPV6-Y466A
  IC50: 3.62 ± 0.54 µM
rTRPV6-M602A
  IC50: 98 ± 19 µM
rTRPV6-R469A
  IC50: 23.4 ± 1.6 µM
rTRPV6-E402A
  IC50: 7.5 ± 2.1 µM

B1: human TRPV6 with a single tyrosine-to-alanine substitution (hTRPV6-Y467A) (natural protein)
chain: MGLSLPKEKGLILCLWSKFCRWFQRRESWAQSRDEQNLLQQKRIWESPLLLAAKDNDVQALNKLLKYEDCKVHQRGAMGETALHIAALYDNLEAAMVLMEAAPELVFEPMTSELYEGQTALHIAVVNQNMNLVRALLARRASVSARATGTAFRRSPCNLIYFGEHPLSFAACVNSEEIVRLLIEHGADIRAQDSLGNTVLHILILQPNKTFACQMYNLLLSYDRHGDHLQPLDLVPNHQGLTPFKLAGVEGNTVMFQHLMQKRKHTQWTYGPLTSTLYDLTEIDSSGDEQSLLELIITTKKREARQILDQTPVKELVSLKWKRYGRPYFCMLGAIYLLYIICFTMCCIYRPLKPRTNNRTSPRDNTLLQQKLLQEAYMTPKDDIRLVGELVTVIGAIIILLVEVPDIFRMGVTRFFGQTILGGPFHVLIITYAFMVLVTMVMRLISASGEVVPMSFALVLGWCNVMAFARGFQMLGPFTIMIQKMIFGDLMRFCWLMAVVILGFASAFYIIFQTEDPEELGHFYDYPMALFSTFELFLTIIDGPANYNVDLPFMYSITYAAFAIIATLLMLNLLIAMMGDTHWRVAHERDELWRAQIVATTVMLERKLPRCLWPRSGICGREYGLGDRWFLRVEDRQDLNRQRIQRYAQAFHTRGSEDLDKDSVEKLELGCPFSPHLSLPMPSVSRSTSRSSANWERLRQGTLRRDLRGIINRGLEDGESWEYQILVPRGSAAAWSHPQFEK
[4]
  stoichiometry N: 4
